Columns and labels:
[1] = biological target: Disintegrin and metalloproteinase domain-containing protein 17 (Homo sapiens, UniProt P78536)
Description: Inhibition of human recombinant TACE

[2] = Selectivity for human recombinant TACE over MMP1
[3] = Selectivity for human recombinant TACE over MMP2
[4] = Selectivity for human recombinant TACE over MMP3
[5] = Selectivity for human recombinant TACE over MMP7
[6] = Selectivity for human recombinant TACE over MMP14
[7] = Selectivity for human recombinant TACE over BMP1
[8] = Selectivity for human recombinant TACE over ADAM10

Disintegrin and metalloproteinase domain-containing protein 17, sequence (P78536 whole entry, the tested form may be a part): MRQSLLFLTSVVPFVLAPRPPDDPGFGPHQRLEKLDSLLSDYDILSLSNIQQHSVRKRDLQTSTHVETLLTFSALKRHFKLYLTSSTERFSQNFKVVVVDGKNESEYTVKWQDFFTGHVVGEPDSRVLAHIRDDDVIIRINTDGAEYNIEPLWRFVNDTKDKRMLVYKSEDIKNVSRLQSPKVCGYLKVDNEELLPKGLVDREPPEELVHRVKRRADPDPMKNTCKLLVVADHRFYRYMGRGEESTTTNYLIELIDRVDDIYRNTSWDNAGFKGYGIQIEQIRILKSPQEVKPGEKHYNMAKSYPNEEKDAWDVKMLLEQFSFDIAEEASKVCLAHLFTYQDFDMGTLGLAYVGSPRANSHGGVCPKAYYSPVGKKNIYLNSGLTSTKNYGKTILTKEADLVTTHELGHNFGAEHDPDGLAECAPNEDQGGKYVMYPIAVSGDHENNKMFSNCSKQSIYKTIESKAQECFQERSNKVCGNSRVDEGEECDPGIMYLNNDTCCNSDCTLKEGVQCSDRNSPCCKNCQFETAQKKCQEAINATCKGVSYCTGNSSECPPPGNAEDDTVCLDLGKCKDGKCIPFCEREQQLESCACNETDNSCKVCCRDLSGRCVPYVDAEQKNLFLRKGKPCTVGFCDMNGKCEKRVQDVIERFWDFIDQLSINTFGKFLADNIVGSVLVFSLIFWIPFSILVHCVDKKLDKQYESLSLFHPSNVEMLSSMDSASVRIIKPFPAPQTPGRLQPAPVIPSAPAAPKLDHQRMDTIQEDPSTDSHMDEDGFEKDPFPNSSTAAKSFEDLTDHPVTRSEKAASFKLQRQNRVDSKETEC

Row | SMILES | Ki [1] | also measured
1 | COC(=O)[C@]1(c2cccc(Oc3ccc(C)cc3)c2)C[C@H]1C(=O)NO | 140 nM | –
2 | Cc1cc(COc2cccc([C@@]3(C(=O)NCc4ccccc4)C[C@H]3C(=O)NO)c2)c2ccccc2n1 | 140 nM | –
3 | COC(=O)[C@]1(c2cccc(Oc3ccccc3)c2)C[C@H]1C(=O)NO | 1100 nM | –
4 | COC(=O)[C@]1(c2cccc(OCC3CCCCC3)c2)C[C@H]1C(=O)NO | 900 nM | –
5 | COC(=O)[C@]1(c2cccc(OCCc3ccc4ccccc4c3)c2)C[C@H]1C(=O)NO | 60 nM | –
6 | COC(=O)C1(Cc2cccc(OCc3ccccc3)c2)CC1C(=O)NO (racemic) | 4000 nM | –
7 | Cc1cc(COc2cccc([C@@]3(C(=O)Nc4ccccc4)C[C@H]3C(=O)NO)c2)c2ccccc2n1 | 11 nM | –
8 | COC(=O)[C@]1(c2cccc(Oc3ccc4ccccc4c3)c2)C[C@H]1C(=O)NO | 70 nM | –
9 | COC(=O)[C@@]1(Cc2ccc(OCC3CCCCC3)cc2)C[C@@H]1C(=O)NO | 26000 nM | –
10 | COC(=O)[C@@]1(Cc2ccc(OCc3ccccc3)cc2)C[C@@H]1C(=O)NO (racemic) | 800 nM | –
11 | CCOC(=O)[C@@]1(Cc2ccc(Oc3ccccc3)cc2)C[C@@H]1C(=O)NO | 3100 nM | –
12 | COC(=O)[C@@]1(Cc2ccc(OCc3ccc(Cl)c(Cl)c3)cc2)C[C@@H]1C(=O)NO | 130 nM | –
13 | Cc1cc(COc2cccc([C@@]3(C(=O)N(C)C)C[C@H]3C(=O)NO)c2)c2ccccc2n1 | 2700 nM | –
14 | COC(=O)[C@@]1(Cc2ccc(OCCc3cccc4ccccc34)cc2)C[C@@H]1C(=O)NO | > 100000 nM | –
15 | COC(=O)C1(Cc2ccc(OCc3ccccc3)cc2)CC1C(=O)NO (racemic) | 800 nM | –
16 | CC#CCOc1ccc(C[C@]2(C(N)=O)C[C@@H]2C(=O)NO)cc1 | 80 nM | –
17 | COC(=O)[C@@]1(Cc2ccc(OCCc3ccc4ccccc4c3)cc2)C[C@@H]1C(=O)NO | > 100000 nM | –
18 | COC(=O)C1(c2cccc(OCc3ccccc3)c2)CC1C(=O)NO (racemic) | 500 nM | –
19 | COC(=O)[C@]1(c2cccc(OCc3ccc4ccccc4c3)c2)C[C@H]1C(=O)NO | 3000 nM | –
20 | COC(=O)[C@]1(c2cccc(OCCc3cccc4ccccc34)c2)C[C@H]1C(=O)NO | 50 nM | –
21 | COC(=O)[C@]1(c2cccc(OCCc3ccccc3)c2)C[C@H]1C(=O)NO | 290 nM | –
22 | CC#CCOc1cccc([C@@]2(C(=O)OC)C[C@H]2C(=O)NO)c1 | 1600 nM | –
23 | Cc1cc(COc2cccc([C@@]3(C(=O)N4CCN(C)CC4)C[C@H]3C(=O)NO)c2)c2ccccc2n1 | 5000 nM | –
24 | NC(=O)C1(c2cccc(OCc3ccccc3)c2)CC1C(=O)NO (stereo not given) | 1200 nM | –
25 | Cc1cc(COc2cccc([C@@]3(C(=O)N(C)Cc4ccccc4)C[C@H]3C(=O)NO)c2)c2ccccc2n1 | 3000 nM | –
26 | Cc1cc(COc2cccc([C@@]3(C(N)=O)C[C@H]3C(=O)NO)c2)c2ccccc2n1 (relative stereo) | 700 nM | –
27 | CC#CCOc1ccc(C[C@]2(C(=O)OC)C[C@@H]2C(=O)NO)cc1 | 420 nM | –
28 | COC(=O)[C@]1(c2cccc(OC)c2)C[C@H]1C(=O)NO | 3000 nM | –
29 | CCOC(=O)C1(c2ccc(OCc3ccccc3)cc2)CC1C(=O)NO (racemic) | 20000 nM | –

The next lines start with results.

Row | Ki [1] | SMILES | also measured
30 | 50 nM | COC(=O)[C@]1(c2cccc(OCc3ccc(Cl)cc3)c2)C[C@H]1C(=O)NO | –
31 | 11 nM | COC(=O)[C@]1(c2cccc(OCc3ccc(Cl)c(Cl)c3)c2)C[C@H]1C(=O)NO | Ratio Ki [2]: 6800; Ratio Ki [3]: 2800; Ratio Ki [4]: 600; Ratio Ki [5]: 5400; Ratio Ki [6]: 2400; Ratio Ki [7]: 400; Ratio Ki [8]: 10
32 | 14 nM | CNC(=O)[C@@]1(Cc2ccc(OCc3cc(C)nc4ccccc34)cc2)C[C@@H]1C(=O)NO | –
33 | 80 nM | COC(=O)[C@]1(c2cccc(OCc3cccc(F)c3)c2)C[C@H]1C(=O)NO | –
34 | 9 nM | Cc1cc(COc2cccc([C@@]3(C(=O)NC4CCCCC4)C[C@H]3C(=O)NO)c2)c2ccccc2n1 | –
35 | 1 nM | Cc1cc(COc2ccc(C[C@]3(C(=O)N(C)C)C[C@@H]3C(=O)NO)cc2)c2ccccc2n1 | –
36 | 18 nM | COC(=O)[C@]1(c2cccc(OCc3ccc(C(F)(F)F)cc3)c2)C[C@H]1C(=O)NO | Ratio Ki [2]: 1800; Ratio Ki [3]: > 600; Ratio Ki [4]: 200; Ratio Ki [5]: > 600; Ratio Ki [6]: 4000; Ratio Ki [7]: 700; Ratio Ki [8]: 8
37 | 260 nM | COC(=O)[C@@]1(Cc2ccc(OCc3ccccc3Cl)cc2)C[C@@H]1C(=O)NO | –
38 | 110 nM | COC(=O)[C@]1(c2cccc(OCc3cccc(OC)c3)c2)C[C@H]1C(=O)NO | –
39 | 16 nM | CCOC(=O)[C@]1(c2cccc(OCc3cc(C)nc4ccccc34)c2)C[C@H]1C(=O)NO | –
40 | 240 nM | COC(=O)[C@]1(c2cccc(Oc3ccccc3C)c2)C[C@H]1C(=O)NO | –
41 | 8 nM | Cc1cc(COc2cccc([C@@]3(C(=O)OC(C)C)C[C@H]3C(=O)NO)c2)c2ccccc2n1 | Ratio Ki [2]: 7400; Ratio Ki [3]: 1400; Ratio Ki [4]: 1500; Ratio Ki [5]: 12400; Ratio Ki [6]: 3000; Ratio Ki [7]: 800; Ratio Ki [8]: 4
42 | 100 nM | CNC(=O)[C@]1(c2cccc(OCc3cc(C)nc4ccccc34)c2)C[C@H]1C(=O)NO | –
43 | 70 nM | COC(=O)[C@]1(c2cccc(OCc3cccc(C(F)(F)F)c3)c2)C[C@H]1C(=O)NO | –
44 | 360 nM | NC(=O)C1(Cc2ccc(OCc3ccccc3)cc2)CC1C(=O)NO (racemic) | –

Reference: ChEMBL document CHEMBL1141652 (J Med Chem, 2008)
